Drawing on ChEMBL document CHEMBL1125716, “1,2,4-Triazolo[4,3-a]pyrazine derivatives with human renin inhibitory activity. 3.1 Synthesis and biological properties of aminodeoxystatine and difluorostatone derivatives” (J Med Chem, 1991), this text covers IC50 for eleven molecules.

For the test, the target named is T1, Renin (Homo sapiens, UniProt P00797).
T1 sequence (P00797 whole entry): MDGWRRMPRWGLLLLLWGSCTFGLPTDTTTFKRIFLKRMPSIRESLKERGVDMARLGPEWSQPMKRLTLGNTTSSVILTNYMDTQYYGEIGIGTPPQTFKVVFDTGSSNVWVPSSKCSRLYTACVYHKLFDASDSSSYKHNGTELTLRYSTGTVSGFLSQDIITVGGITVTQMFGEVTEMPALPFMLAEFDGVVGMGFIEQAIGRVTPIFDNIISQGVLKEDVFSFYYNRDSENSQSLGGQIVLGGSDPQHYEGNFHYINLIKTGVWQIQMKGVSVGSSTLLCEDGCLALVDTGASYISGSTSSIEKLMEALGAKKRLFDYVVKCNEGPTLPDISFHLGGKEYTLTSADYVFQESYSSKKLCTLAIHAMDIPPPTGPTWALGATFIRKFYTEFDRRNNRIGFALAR
The experiment in a line: Inhibition of human renin.
In the case of `CC(C)Cc1nc(-c2ccccc2)cn2c([C@H](Cc3cccnc3)C(=O)N[C@@H](CC3CCCCC3)C(N)CC(=O)NC(CC(C)C)C(=O)NCc3ccccn3)nnc12` (stereo in doubt; 13b), the IC50 (in general, the concentration needed to halve the response being measured) amounted to 100 nM. This counts as sub-micromolar. Molecule `CC(C)Cc1nc(-c2ccccc2)cn2c([C@@H](Cc3cccnc3)C(=O)N[C@H](CC3CCCCC3)C(N)CC(=O)NC(CC(C)C)C(=O)NCc3ccccn3)nnc12` (stereo in doubt; 13c) registered an IC50 of 6.1 nM. Compared with the last molecule, the IC50 is about 16-fold lower. With `CCCc1nc(-c2cccnc2)cn2c(CC(=O)NC(CC3CCCCC3)C(=O)C(F)(F)C(=O)NCCC(C)C)nnc12` (stereo unspecified), the 50% inhibitory concentration (IC50) came to 1.6 nM. In turn, `CCCc1nc(-c2cccnc2)cn2c(CC(=O)NC(CC3CCCCC3)C(=O)C(F)(F)C(=O)NCC(C)CC)nnc12` (stereo unspecified) had an IC50 of 1.7 nM. The IC50 values of the last two molecules are within 1.5-fold of each other. Take `CC(C)Cc1nc(-c2ccccc2)cn2c(C(Cc3cccnc3)C(=O)NC(CC(C)CC3CCCCC3)C(O)CC(=O)NC(CC(C)C)C(=O)NCc3cccc(CN)c3)nnc12` (stereo unspecified): the half-maximal inhibitory concentration (IC50) is 1.7 nM. The same measure for `CCCc1nc(-c2cccnc2)cn2c(CC(=O)NC(CC3CCCCC3)C(=O)C(F)(F)C(=O)NCC)nnc12` (stereo unspecified): 1.4 nM; for `CC(C)CCNC(=O)C(F)(F)C(=O)C(CC1CCCCC1)NC(=O)Cc1nnc2c(CC(C)C)nc(-c3ccccc3)cn12` (stereo unspecified): 38 nM; for `CC(C)Cc1nc(-c2ccccc2)cn2c(CC(=O)NC(CC3CCCCC3)C(=O)C(F)(F)C(=O)NC(CC(C)C)C(=O)NCc3ccccn3)nnc12` (stereo unspecified): 1.9 nM.

Turning to `CCCc1nc(-c2cccnc2)cn2c(C(Cc3cccnc3)C(=O)NC(CC3CCCCC3)C(=O)C(F)(F)C(=O)NCCC(C)C)nnc12` (stereo unspecified), the IC50 was found to be 1.8 nM. `CC(C)Cc1nc(-c2ccccc2)cn2c([C@H](Cc3cccnc3)C(=O)N[C@@H](CC3CCCCC3)C(N)CC(=O)NC(CC(C)C)C(=O)NCc3ccccn3)nnc12` (stereo in doubt; 13a) showed a half-inhibitory concentration (IC50) of 3.9 nM. With `CC(C)Cc1nc(-c2ccccc2)cn2c([C@@H](Cc3cccnc3)C(=O)N[C@H](CC3CCCCC3)C(N)CC(=O)NC(CC(C)C)C(=O)NCc3ccccn3)nnc12` (stereo in doubt; 13d), the IC50 is 120 nM.
